Results from patent publication US20120122225A1, “CARRIER PEPTIDE FRAGMENT AND USE THEREOF” (TOAGOSEI CO. LTD., priority 2009, published 2012).
* marks the point of attachment. FITC = O=C1OC2(c3ccc(O)cc3Oc3cc(O)ccc32)c2ccc(NC(=S)*)cc21; Ahx = NCCCCCC(=O)O

Columns and labels:
[1] = system: human iPS cells (cell line 201B2-082008KU); assay: Evaluation of cell membrane permeability function (2), confocal laser scanning microscopy of fluorescently labeled peptide; type: cell-based; conditions: 1 μM sample; for penetration of the cell membrane from outside the cell / transfer into the cells: 1 hour culture (FIGS. 3, 4), methanol fixed
From the text: The target cells for transferring the foreign substance were changed from human neonate foreskin fibroblasts to human iPS cells (human induced pluripotent stem cells), and the cell membrane permeability capability of the two samples (constructs for transferring a foreign substance) obtained in Example 1 above was investigated. It should also be noted that the iPS cells (cell line 201B2-082008KU) and the mouse embryonic fibroblast feeder cells (cell line SNL 76/7, hereinafter “MEF”) used in this example were provided by the Yamanaka Research Laboratory of the Institute for Frontier Medical Sciences, Kyoto University (professor Shinya Yamanaka).
First the obtained MEF were inactivated by a mitomycin C treatment (3 hours) and then trypsinized in a 0.25% trypsin solution containing 1 mM EDTA. After the above treatment, the trypsin was deactivated with culture medium containing FBS, and the MEF were adjusted to a suitable cell density using D-MEM medium (Dulbecco's Modified Eagle Medium: Gibco) containing MEF culture medium (7% FBS: Gibco), 2 mM L-glutamine (Gibco), 50 units/mL penicillin, and 50 μg/mL streptomycin (Gibco), and the abovementioned MEF were seeded onto a culture container (in the form of a culture slide or plate) with a surface coating of 0.1% gelatin. In this case, the MEF were seeded so that the cell density would be approximately 1.25×10^5 cells/mL. Next, the abovementioned cell culture containers were incubated overnight at 37° C. in a 5% CO2 atmosphere.
Thereafter, the feeder cells were prepared by removing the MEF culture medium and rinsing with PBS.
Separately, CTK solution (0.25% trypsin solution containing 0.1 mg/mL collagenase IV (Gibco), 1 mM calcium chloride, and 20% KSR (KnockOut® Serum Replacement)) was added to the obtained iPS cell line, the MEF were peeled therefrom, and the cells were rinsed with PBS.
Next, 1 mL hESC culture medium (i.e., human ES cell medium, in this case, DMEM/F12 culture medium (Gibco) containing 20% KSR (Gibco), 2 mM L-glutamine (Gibco), 0.1% nonessential amino acids (Gibco), 0.1 mM 2-mercaptoethanol (Gibco), 50 units/mL penicillin, and 50 μg/mL streptomycin (Invitrogen, 4 ng/mL bFGF (basic fibroblast growth factor)) was added, the iPS cells were peeled off using a cell scraper, and the colony was broken apart by gentle pipetting.
A suspension of iPS cells obtained in this manner was seeded onto the feeder cells in the culture containers that had been prepared as described above. Then, the abovementioned hESC medium was added, and the cell culture containers were incubated overnight at 37° C. in a 5% CO2 atmosphere.
After incubation overnight, the culture medium was removed from the culture containers, and the abovementioned hESC medium to which one of the 1 mM sample solutions prepared in abovementioned Example 1 had been added to make a final sample concentration (pipetted concentration) of 1 μM was added to the culture containers. Then the samples were incubated at 37° C. for either 1 or 4 hours in a 5% CO2 atmosphere.
The cells after 1 hour of culture and cells after 4 hours of culture were each rinsed in PBS (phosphate buffered saline) and fixed with methanol (on ice for 10 min).
Next, the same treatment as in Example 2 was performed, and the localization within the iPS cells of the peptide that was bonded to the fluorescent dye (i.e., fluorescently labeled) was verified using a confocal scanning laser microscope. FIG. 3 is a micrograph showing the results after 1 hour of culture of the cell suspension to which abovementioned Sample No. 1 had been added, and FIG. 4 is a micrograph after 1 hour of culture of the cell suspension to which abovementioned Sample No. 2 had been added.

[2] = system: Human neonate foreskin fibroblasts (ATCC Catalogue No. CRL-2097); assay: Evaluation of cell membrane permeability function (1), confocal laser scanning microscopy of fluorescently labeled peptide; type: cell-based; conditions: 1 μM sample
Method: Human neonate foreskin fibroblasts (ATCC Catalogue No. CRL-2097) were used as the eukaryotic cells, and the cell membrane permeability capability of the two samples (constructs for transferring a foreign substance) obtained in Example 1 above was investigated.
More specifically, the abovementioned fibroblasts were cultured in a liquid mixture of 90% Eagle MEM culture medium (containing 0.1% nonessential amino acids, 2 mM L-glutamine, 1 mM sodium pyruvate, and 1.5 g/L sodium hydrogen carbonate) and 10% serum (FBS) as the culture medium.
The cultured cells were trypsinized for 1 min at 37° C. with a 0.25% trypsin solution. After the abovementioned treatment, the trypsin was deactivated with FBS-containing medium, and a cell suspension (test sample for foreign substance transfer) was prepared by adjusting the cell concentration to approximately 5×10^4 cells/mL with the culture medium.
Next, 0.5 mL of the abovementioned cell suspension was placed in a designated cell culturing container (culture slide with a surface coating of 0.1% gelatin), and the cells were incubated overnight at 37° C. in a 5% CO2 atmosphere. After incubation the medium was replaced with fresh culture medium, and the 1 mM sample solutions of each of the samples prepared in abovementioned Example 1 were added to a cell culture container so that the final sample concentration (peptide concentration) would be 1 μM. In this case 0.5 μL of sample solution was added to the container. Then the samples were incubated at 37° C. for either 1 or 4 hours in a 5% CO2 atmosphere.
The cells after 1 hour of culture and the cells after 4 hours of culture were each rinsed in PBS (phosphate buffered saline) and fixed with methanol (on ice for 10 min).
Next the methanol-fixed samples (cells) were mounted using Prolong® Gold Antifade Reagent (Invitrogen) that contains the nuclear stain DAPI (4′,6-diamidino-2-phenylindole). Then the localization within the cells of the peptide bonded to the fluorescent dye (i.e., fluorescently labeled peptide) in each test sample (i.e., the abovementioned mounted test samples after methanol fixation) was verified using a confocal scanning laser microscope.
FIGS. 1 and 2 are micrographs showing the results when abovementioned Sample No. 1 was added to the liquid suspension of cells.

**Q.** With (FAM)-WRRQARFK [Sample No. 1] as the substance, how does the cell membrane permeability [1] read?
**A.** Its cell membrane permeability is “exhibited excellent cell membrane permeability”.

**Q.** What about the “translocation into the nucleus (DAPI nuclear staining)” value [1] of the same substance?
**A.** The value was “had further translocated into the nucleus”.

**Q.** And the “penetration of the cell membrane from outside the cell / transfer into the cells” value [1]?
**A.** Its value is “penetrated the cell membrane from outside the cell rapidly after addition and were transferred into the cells”.

**Q.** And the cell membrane permeability [2]?
**A.** Its cell membrane permeability is “exhibited excellent cell membrane permeability”.

**Q.** And the “translocation into the nucleus (DAPI nuclear staining)” value ([2]; 1 or 4 hours culture)?
**A.** The value was “had translocated into the nucleus”.

**Q.** What about the “penetration of the cell membrane from outside the cell / transfer into the cells” value ([2]; 1 or 4 hours culture, methanol fixed) of the same substance?
**A.** The value was “penetrated the cell membrane from outside the cell rapidly after it was added, and thus was transferred into the cells”.

**Q.** What does the source list for “(FITC)-(Acp)-WRRQARFKGTLKERCLQVVRSLVK ({FITC-Ahx}-WRRQARFKGTLKERCLQVVRSLVK-NH2; SMILES CC(C)C[C@H](NC(=O)[C@H](CS)NC(=O)[C@H](CCCNC(=N)N)NC(=O)[C@H](CCC(=O)O)NC(=O)[C@H](CCCCN)NC(=O)[C@H](CC(C)C)NC(=O)[C@@H](NC(=O)CNC(=O)[C@H](CCCCN)NC(=O)[C@H](Cc1ccccc1)NC(=O)[C@H](CCCNC(=N)N)NC(=O)[C@H](C)NC(=O)[C@H](CCC(N)=O)NC(=O)[C@H](CCCNC(=N)N)NC(=O)[C@H](CCCNC(=N)N)NC(=O)[C@H](Cc1c[nH]c2ccccc12)NC(=O)CCCCCNC(=S)Nc1ccc2c(c1)C(=O)OC21c2ccc(O)cc2Oc2cc(O)ccc21)[C@@H](C)O)C(=O)N[C@@H](CCC(N)=O)C(=O)N[C@H](C(=O)N[C@H](C(=O)N[C@@H](CCCNC(=N)N)C(=O)N[C@@H](CO)C(=O)N[C@@H](CC(C)C)C(=O)N[C@H](C(=O)N[C@@H](CCCCN)C(N)=O)C(C)C)C(C)C)C(C)C) [Sample No. 2, FITC bonded via linker Acp (6-aminohexanoic acid) to the N-terminus of Peptide 2; construct for transferring a foreign substance]”?
**A.** cell membrane permeability [1]: exhibited excellent cell membrane permeability; translocation into the nucleus (DAPI nuclear staining) [1]: had further translocated into the nucleus; penetration of the cell membrane from outside the cell / transfer into the cells [1]: penetrated the cell membrane from outside the cell rapidly after addition and were transferred into the cells; cell membrane permeability [2]: exhibited excellent cell membrane permeability
